According to patent US10786508B2, “Substituted imidazo[1,5-A]-pyrimidines and their use in the treatment of medical disorders” (Lysosomal Therapeutics Inc., priority 2014, dated 2020):
In brackets after ≈: the same amount, converted by molar mass.

Columns and labels:
[1] = molecular target: T1, glucocerebrosidase (Gcase) (Homo sapiens, UniProt P04062); test: Glucocerebrosidase (Gcase) activation assay, 4-methylumbelliferyl-beta-D-glucopyranoside substrate, with saposin C; assay type: biochemical; conditions: 10 nM GCase, 100 nM saposin C, pH 4.7; for activation at 0.1 µM: 0.1 μM test compound, read-out: Percent Gease Activation 0.1 μM Test Compound; for activation at 1 µM: 1 μM test compound, read-out: Percent Gease Activation 1 μM Test Compound
T1 construct: micellar solution containing 10 nM GCase and 100 nM saposin C
T1 sequence (P04062 40-536): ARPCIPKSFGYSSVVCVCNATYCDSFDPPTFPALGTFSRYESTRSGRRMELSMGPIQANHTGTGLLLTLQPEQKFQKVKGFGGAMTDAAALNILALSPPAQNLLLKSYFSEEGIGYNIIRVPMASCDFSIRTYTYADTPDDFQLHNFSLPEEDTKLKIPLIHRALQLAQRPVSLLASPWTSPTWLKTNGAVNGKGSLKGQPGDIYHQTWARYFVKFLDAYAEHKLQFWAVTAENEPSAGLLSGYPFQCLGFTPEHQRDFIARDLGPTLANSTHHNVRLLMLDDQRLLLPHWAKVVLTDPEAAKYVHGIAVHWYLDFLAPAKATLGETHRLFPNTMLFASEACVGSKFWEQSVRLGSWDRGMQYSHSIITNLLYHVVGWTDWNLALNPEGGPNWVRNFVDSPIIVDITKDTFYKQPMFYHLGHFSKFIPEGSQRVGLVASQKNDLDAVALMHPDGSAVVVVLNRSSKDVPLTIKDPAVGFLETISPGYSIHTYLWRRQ
Description: The ability of exemplary compounds to activate glucocerebrosidase (Gcase) was measured.
A 484 μL aliquot of a 1.0 mg/mL solution of phosphatidylserine (PS) (Sigma P7769) in chloroform was evaporated under a stream of nitrogen for 1 hour. The lipid film was dissolved over 4 minutes of vigorous vortexing in 40 mL of 176 mM K2HPO4/50 mM citric acid (pH 4.7) containing 7.5 μL of triton X-100, resulting in a mixed micellar preparation with a composition of 0.32 mM triton and 0.37 mol % PS. 4-Methylumbelliferyl-beta-D-glucopyranoside (ACROS-337025000) was dissolved in the micellar solution to a final concentration of 2 mM for use as the reaction substrate.
Test compounds were diluted to the desired concentrations with dimethylsulfoxide (DMSO) from 10 mM stocks, and 0.41 μL of the DMSO compound mixture was added to 100 μL of micellar solution containing 10 nM GCase and 100 nM saposin C (Enzo ALX-201-262-C050). Pre-incubation was allowed to occur for 30 minutes at room temperature, after which the reaction was initiated by combining 25 μL of substrate solution with 25 μL of compound/GCase/saposin mixture. The reaction proceeded for 15 minutes at room temperature and was stopped by adding 150 μL of 1M glycine, pH 12.5. The endpoint of the reaction was monitored by measuring fluorescence intensity (excitation: 365 nm; emission: 440 nm) on a SpectraMax i3 instrument (Molecular Devices). Test compounds were screened at 1.0 and 0.1 μM final concentration, and subsequent 8-point dose response curves were obtained using 3-fold dilutions from a maximum final concentration of 5 μM.
For experiments in which the test compound was used at a concentration of 1.0 μM, the symbol “+” indicates less than 30% Gcase activation; the symbol “++” indicates Gcase activation in the range of 30% up to 60%; and the symbol “+++” indicates Gcase activation greater than 60%. For experiments in which the test compound was used at a concentration of 0.1 μM, the symbol “*” indicates less than 10% Gcase activation; the symbol “**” indicates Gcase activation in the range of 10% up to 20%; and the symbol “***” indicates greater than 20% Gcase activation.

[2] = Compound solubility in water; assay type: physicochemical

Structure (SMILES) | activation at 0.1 µM [1] [%] | activation at 1 µM [1] [%] | solubility [2] [µg/mL]
CCCOc1cccc(C(C)(C)NC(=O)c2ncn3c(COC)cc(C4CC4)nc23)c1 [III-51] | > 20 | > 60 | 10.5 (≈ 24.9 µM)
CCCCO[C@H]1C[C@H]2CC[C@@H](C1)[C@H]2NC(=O)c1ncn2c(C)cc(C)nc12 [III-84] | > 20 | > 60 | 0.2 (≈ 0.54 µM)
Cc1cc(C)n2cnc(C(=O)NC(C)(C)c3cccc(Cl)c3)c2n1 [III-82] | < 10 | > 60 | 14.8 (≈ 43.2 µM)
COCc1cc(C2CC2)n2cnc(C(=O)NC3(C)CCOc4c(F)ccc(F)c43)c2n1 (stereo not drawn) [III-72] | < 10 | 30 to 60 | 23.6 (≈ 55.1 µM)
COCc1cc(C(C)C)n2cnc(C(=O)NC(C)(C)c3cccc(OC4CC4)c3)c2n1 [III-57] | 10 to 20 | > 60 | 38.5 (≈ 91.1 µM)
Cc1cc(C)n2cnc(C(=O)NC3Cc4ccccc4C3)c2n1 [III-67] | < 10 | < 30 | 18 (≈ 58.8 µM)
Cc1cc(C)n2cnc(C(=O)N[C@@H](C)c3cccc(Cl)c3)c2n1 [III-77] | < 10 | 30 to 60 | 26 (≈ 79.1 µM)
CCCCO[C@@H]1[C@@H]2CC[C@H]1C[C@@H](NC(=O)c1ncn3c(C)cc(C)nc13)C2 [III-86] | 10 to 20 | > 60 | 14.6 (≈ 39.4 µM)
Cc1cc(C(C)C)n2cnc(C(=O)NC3(C)CCOc4c(F)cccc43)c2n1 (stereo not drawn) [III-37] | < 10 | 30 to 60 | 28 (≈ 73.2 µM)
COc1ccc(F)cc1C(C)NC(=O)c1ncn2c(C)cc(C)nc12 (stereo not drawn) [III-79] | < 10 | 30 to 60 | 32 (≈ 93.5 µM)

The next lines start with the values.

activation at 0.1 µM [1] [%] | activation at 1 µM [1] [%] | solubility [2] [µg/mL] | Structure (SMILES)
< 10 | 30 to 60 | 39.5 (≈ 121 µM) | CCC(NC(=O)c1ncn2c(C)cc(C)nc12)c1ccc(F)cc1 (stereo not drawn) [III-78]
< 10 | < 30 | < 0.01 | Cc1cc(C)n2cnc(C(=O)Nc3ccc(-c4ccco4)nc3)c2n1 [III-66]
< 10 | < 30 | 0.3 (≈ 0.861 µM) | Cc1cc(C)n2cnc(C(=O)Nc3ccc4c(C)cc(=O)oc4c3)c2n1 [III-9]
< 10 | < 30 | 26.6 (≈ 91.3 µM) | C#Cc1ccc(NC(=O)c2ncn3c(C)cc(C)nc23)cn1 [III-5]
> 20 | > 60 | 0.3 (≈ 0.851 µM) | CCCCCOc1ccc(NC(=O)c2ncn3c(C)cc(C)nc23)cc1 [III-28]
10 to 20 | > 60 | < 1.5 | C#Cc1ccc(NC(=O)c2ncn3c(C)cc(C)nc23)cc1 [III-1]
< 10 | 30 to 60 | 0.2 (≈ 0.544 µM) | Cc1cc(C)n2cnc(C(=O)Nc3ccc(Cl)c(-c4cnco4)c3)c2n1 [III-27]
